US20130225591A1, “IMIDOTHIAZOLE KINASE INHIBITORS” (priority 2009, published 2013)

What follows are compounds tested against T1, CDK5-p25 kinase (Homo sapiens, UniProt Q00535) (assay: CDK5-p25 kinase enzymatic assay). Conditions: 50 nM-99 nM; 5 uM ATP, 0.3 nM CDK5-p25; read-out: IC50 potency, CDK5-p25 kinase enzymatic assay, 50 nM-99 nM.
T1 construct: purchased Invitrogen PV4677
Type: biochemical
Procedure: CDK5-p25 kinase (Invitrogen PV4677) enzymatic activity was measured using electrophoretic separation and fluorescent detection to monitor phosphorylation of a fluorescently labeled histone H1-derived peptide substrate, FL29 (5-FAM-GGGPATPKKAKKL-CONH2, Caliper #760429)
First, 0.25 uL of serially diluted compound in DMSO at 100× concentration was transferred into each well of a 384-well polystyrene assay plate. To this was added 15 uL of a 1.67× enzyme solution (500 pM enzyme, 1 mM DTT (Sigma D9779), 1× reconstitution buffer with protease inhibitor (Caliper #700329 proprietary formulation)), followed by centrifugation for 1 min at 1000 rpm, and incubation for 5-15 min at room temperature to allow binding of compound to enzyme. To initiate the reaction, 10 uL of substrate/ATP mix (245 mM Hepes pH 7.5, 0.003% Brij 35, 0.004% Tween, 12.75 uM ATP, 3.75 uM FL29 peptide) were added to each well, followed by centrifugation at 1000 rpm for 1 min. The reaction was then incubated at room temperature for 30 min. Final assay conditions were: 0.3 nM CDK5-p25, 1.5 uM peptide, 5 uM ATP, 0.6 mM DTT, 1% DMSO, 98 mM HEPES pH 7.5.
After incubation, reactions were quenched by the addition of 45 uL Caliper termination solution (Caliper proprietary formula), followed by centrifugation at 1000 rpm for 1 min. Extent of reaction (percentage conversion of substrate to phosphorylated product) was then measured using the Caliper EZ II reader. Dose-response curves were created by plotting the inhibition of enzyme activity (normalized relative to vehicle treated and no ATP control reactions) as a function of the log of compound concentration. The curve was analyzed using a four parameter logistical fit to calculate IC50 values.

T1 sequence (Q00535 whole entry): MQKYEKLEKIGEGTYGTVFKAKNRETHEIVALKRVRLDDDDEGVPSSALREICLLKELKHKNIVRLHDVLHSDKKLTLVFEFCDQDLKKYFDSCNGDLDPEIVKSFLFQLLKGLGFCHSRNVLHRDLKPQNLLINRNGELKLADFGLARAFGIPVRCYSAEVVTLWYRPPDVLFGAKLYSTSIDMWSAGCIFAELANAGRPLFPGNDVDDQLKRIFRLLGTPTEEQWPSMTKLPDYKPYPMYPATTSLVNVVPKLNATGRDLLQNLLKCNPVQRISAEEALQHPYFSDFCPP
T1 sequence (Q15078 99-307 partner limits assumed): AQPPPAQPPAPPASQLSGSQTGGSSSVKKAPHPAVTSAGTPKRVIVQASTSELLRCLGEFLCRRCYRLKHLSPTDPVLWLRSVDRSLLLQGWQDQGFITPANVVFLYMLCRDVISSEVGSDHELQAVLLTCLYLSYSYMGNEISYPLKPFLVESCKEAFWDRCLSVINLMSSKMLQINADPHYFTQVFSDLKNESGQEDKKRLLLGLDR

Compound | IC50 [µM]
Cn1cc(-c2ccc(CC(=O)Nc3ncn4c(C(F)(F)F)csc34)cc2)cn1 [Example 20, 2-[4-(1-methyl-1H-pyrazol-4-yl)phenyl]-N-[3-(trifluoromethyl)imidazo[5,1-b][1,3]thiazol-7-yl]acetamide] | 0.05 to 0.099
O=C(Cc1ccc(N2CCCC2=O)cc1)Nc1ncn2c(C(F)(F)F)csc12 [Example 17, 2-[4-(2-oxopyrrolidin-1-yl)phenyl]-N-[3-(trifluoromethyl)imidazo[5,1-b][1,3]thiazol-7-yl]acetamide] | 0.05 to 0.099
O=C(Cc1ccc(C(=O)N2CCCC2)cc1)Nc1ncn2c(C(F)(F)F)csc12 [Example 74, 2-[4-(pyrrolidin-1-ylcarbonyl)phenyl]-N-[3-(trifluoromethyl)imidazo[5,1-b][1,3]thiazol-7-yl]acetamide] | 0.05 to 0.099
O=C(Cc1ccc(NC(=O)c2cccnc2)cc1)Nc1ncn2c(C(F)(F)F)csc12 [Example 61, N-[4-(2-oxo-2-{[3-(trifluoromethyl)imidazo[5,1-b][1,3]thiazol-7-yl]amino}ethyl)phenyl] nicotinamide] | 0.05 to 0.099
O=C(Cc1ccc(CO)cc1)Nc1ncn2c(C(F)(F)F)csc12 [Example 71, 2-[4-(hydroxymethyl)phenyl]-N-[3-(trifluoromethyl)imidazo[5,1-b][1,3]thiazol-7-yl]acetamide] | 0.05 to 0.099
O=C(Cc1c[nH]c2ccccc12)Nc1ncn2c(C(F)(F)F)csc12 [Example 57, 2-(1H-indol-3-yl)-N-[3-(trifluoromethyl)imidazo[5,1-b][1,3]thiazol-7-yl]acetamide] | 0.05 to 0.099
O=C(Cc1ccc(-c2ccnnc2)cc1)Nc1ncn2c(C(F)(F)F)csc12 [Example 26, 2-(4-pyridazin-4-ylphenyl)-N-[3-(trifluoromethyl)imidazo[5,1-b][1,3]thiazol-7-yl]acetamide] | 0.05 to 0.099
C[C@H](C(=O)Nc1ncn2c(C(F)(F)F)csc12)c1ccc2ccccc2c1 [Example 36, (2S)-2-(2-naphthyl)-N-[3-(trifluoromethyl)imidazo[5,1-b][1,3]thiazol-7-yl]propanamide] | 0.05 to 0.099
O=C(Nc1ncn2c(C(F)(F)F)csc12)C(O)c1ccc2ccccc2c1 (single isomer, unassigned) [Example 44, (R or S)-2-hydroxy-2-(2-naphthyl)-N-[3-(trifluoromethyl)imidazo[5,1-b][1,3]thiazol-7-yl]acetamide] | 0.05 to 0.099

Same assay, conditions: 500 nM-3 μM; 5 uM ATP, 0.3 nM CDK5-p25; read-out: IC50 potency, CDK5-p25 kinase enzymatic assay, 500 nM-3 μM

Compound | IC50 [µM]
O=C(Nc1ncn2c(C(F)(F)F)csc12)C(CO)c1ccc2ccccc2c1 (stereo not shown) [Example 67, 3-hydroxy-2-(2-naphthyl)-N-[3-(trifluoromethyl)imidazo[5,1-b][1,3]thiazol-7-yl]propanamide] | 0.5 to 3
O=C(Cc1cn2cccnc2n1)Nc1ncn2c(C(F)(F)F)csc12 [Example 28, 2-imidazo[1,2-a]pyrimidin-2-yl-N-[3-(trifluoromethyl)imidazo[5,1-b][1,3]thiazol-7-yl]acetamide] | 0.5 to 3
O=C(Cc1ccc2ccccc2c1)Nc1ncn2ccsc12 [Example 82, N-imidazo[5,1-b][1,3]thiazol-7-yl-2-(2-naphthyl)acetamide] | 0.5 to 3

Same assay, conditions: 5 uM ATP, 0.3 nM CDK5-p25; read-out: IC50 potency, CDK5-p25 kinase enzymatic assay, 100 nM-499 nM

Compound | IC50 [µM]
CS(=O)(=O)c1ccc(CC(=O)Nc2ncn3c(C(F)(F)F)csc23)cc1 [Example 58, 2-[4-(methylsulfonyl)phenyl]-N-[3-(trifluoromethyl)imidazo[5,1-b][1,3]thiazol-7-yl]acetamide] | 0.1 to 0.499
O=C(CC1CCOCC1)Nc1ncn2c(C(F)(F)F)csc12 [Example 21, 2-(tetrahydro-2H-pyran-4-yl)-N-[3-(trifluoromethyl)imidazo[5,1-b][1,3]thiazol-7-yl]acetamide] | 0.1 to 0.499
Cc1cc(CC(=O)Nc2ncn3c(C(F)(F)F)csc23)on1 [Example 22, 2-(3-methylisoxazol-5-yl)-N-[3-(trifluoromethyl)imidazo[5,1-b][1,3]thiazol-7-yl]acetamide] | 0.1 to 0.499
O=C(CN1Cc2ccccc2C1)Nc1ncn2c(C(F)(F)F)csc12 [Example 68, 2-(1,3-dihydro-2H-isoindol-2-yl)-N-[3-(trifluoromethyl)imidazo[5,1-b][1,3]thiazol-7-yl]acetamide] | 0.1 to 0.499

Same assay, conditions: '<50 nM'; 5 uM ATP, 0.3 nM CDK5-p25; read-out: IC50 potency, CDK5-p25 kinase enzymatic assay, <50 nM

Compound | IC50 [µM]
O=C(Cc1ccc(-c2nnco2)cc1)Nc1ncn2c(C(F)(F)F)csc12 [Example 70, 2-[4-(1,3,4-oxadiazol-2-yl)phenyl]-N-[3-(trifluoromethyl)imidazo[5,1-b][1,3]thiazol-7-yl]acetamide] | < 0.05
O=C(Cc1ccc(Cl)nc1)Nc1ncn2c(C(F)(F)F)csc12 [Example 7, 2-(6-chloropyridin-3-yl)-N-[3-(trifluoromethyl)imidazo[5,1-b][1,3]thiazol-7-yl]acetamide] | < 0.05
O=C(Cc1cccc(-c2ccncc2)c1)Nc1ncn2c(C(F)(F)F)csc12 [Example 64, 2-(3-pyridin-4-ylphenyl)-N-[3-(trifluoromethyl)imidazo[5,1-b][1,3]thiazol-7-yl]acetamide] | < 0.05
O=C(Cc1ccc2ccccc2c1)Nc1ncn2c(C(F)(F)F)csc12 [Example 2, 2-(2-naphthyl)-N-[3-(trifluoromethyl)imidazo[5,1-b][1,3]thiazol-7-yl]acetamide] | < 0.05
O=C(Cc1cccc(-c2cc[nH]n2)c1)Nc1ncn2c(C(F)(F)F)csc12 [Example 48, 2-[3-(1H-pyrazol-3-yl)phenyl]-N-[3-(trifluoromethyl)imidazo[5,1-b][1,3]thiazol-7-yl]acetamide] | < 0.05
O=C(Cc1ccc2ccccc2c1)Nc1ncn2c(C(F)(F)F)c(C(=O)O)sc12 [Example 85, 7-[(Naphthalen-2-ylacetyl)amino]-3-(trifluoromethyl)imidazo[5,1-b][1,3]thiazole-2-carboxylic Acid] | < 0.05
O=C(Cc1ccc(NC(=O)c2ccncc2)cc1)Nc1ncn2c(C(F)(F)F)csc12 [Example 62, N-[4-(2-oxo-2-{[3-(trifluoromethyl)imidazo[5,1-b][1,3]thiazol-7-yl]amino}ethyl)phenyl] isonicotinamide] | < 0.05
NC(=O)c1sc2c(NC(=O)Cc3ccc4ccccc4c3)ncn2c1C(F)(F)F [Example 86, 7-[(Naphthalen-2-ylacetyl)amino]-3-(trifluoromethyl)imidazo[5,1-b][1,3]thiazole-2-carboxyamide] | < 0.05
O=C(Cc1ccc(Cl)cc1)Nc1ncn2c(C(F)(F)F)csc12 [Example 43, 2-(4-chlorophenyl)-N-[3-(trifluoromethyl)imidazo[5,1-b][1,3]thiazol-7-yl]acetamide] | < 0.05
O=C(Cc1ccc(-c2cc[nH]n2)cc1)Nc1ncn2c(C(F)(F)F)csc12 [Example 19, 2-[4-(1H-pyrazol-3-yl)phenyl]-N-[3-(trifluoromethyl)imidazo[5,1-b][1,3]thiazol-7-yl]acetamide] | < 0.05
O=C(Cc1ccc2ccccc2c1)Nc1ncn2ccsc12 [Example 82, N-imidazo[5,1-b][1,3]thiazol-7-yl-2-(2-naphthyl)acetamide] | < 0.05
O=C(Cc1ccc2ccccc2c1)Nc1ncn2c(Br)csc12 [Example 83, N-(3-Bromoimidazo[5,1-b][1,3]thiazol-7-yl)-2-(naphthalen-2-yl)acetamide] | < 0.05
O=C(Cc1ccc2ncccc2c1)Nc1ncn2c(C(F)(F)F)csc12 [Example 3, 2-quinolin-6-yl-N-[3-(trifluoromethyl)imidazo[5,1-b][1,3]thiazol-7-yl]acetamide] | < 0.05
O=C(Cc1ccc(-c2cn[nH]c2)cc1)Nc1ncn2c(C(F)(F)F)csc12 [Example 16, 2-[4-(1H-pyrazol-4-yl)phenyl]-N-(3-(trifluoromethyl)imidazo[5,1-b][1,3]thiazol-7-yl]acetamide] | < 0.05
O=C(Cc1ccc(N2CCOC2=O)cc1)Nc1ncn2c(C(F)(F)F)csc12 [Example 1, 2-[4-(2-Oxo-1,3-oxazolidin-3-yl)phenyl]-N-[3-(trifluoromethyl)imidazo[5,1-b][1,3]thiazol-7-yl]acetamide] | < 0.05
O=C(Cc1ccc(-c2ccccc2)nc1)Nc1ncn2c(C(F)(F)F)csc12 [Example 50, 2-(6-phenylpyridin-3-yl)-N-[3-(trifluoromethyl)imidazo[5,1-b][1,3]thiazol-7-yl]acetamide] | < 0.05
O=C(Cc1ccc2ccncc2c1)Nc1ncn2c(C(F)(F)F)csc12 [Example 4, 2-isoquinolin-7-yl-N-[3-(trifluoromethyl)imidazo[5,1-b][1,3]thiazol-7-yl]acetamide] | < 0.05
O=C(Cc1ccc(-c2ccccn2)cc1)Nc1ncn2c(C(F)(F)F)csc12 [Example 54, 2-(4-pyridin-2-ylphenyl)-N-[3-(trifluoromethyl)imidazo[5,1-b][1,3]thiazol-7-yl]acetamide] | < 0.05
